According to PubChem BioAssay (NCI):
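The compound was tested at five concentrations on cells cultured in 96-well plates, with a 48-hour exposure period. TGI is the concentration that stops growth completely.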 Where a SMILES comes first, the peptide text is derived from it.

How the values were obtained:
Experiment in all cases: growth of human tumour cells (NCI), 48 h
HL-60(TB) leukemia = tested on: HL-60(TB) leukemia
OVCAR-5 ovarian = tested on: OVCAR-5 ovarian
DU-145 prostate = tested on: DU-145 prostate
NCI-H226 lung = tested on: NCI-H226 lung
MOLT-4 leukemia = tested on: MOLT-4 leukemia
MDA-MB-231 breast = tested on: MDA-MB-231 breast
IGROV1 ovarian = tested on: IGROV1 ovarian
OVCAR-4 ovarian = tested on: OVCAR-4 ovarian
SK-MEL-28 melanoma = tested on: SK-MEL-28 melanoma
NCI-H522 lung = tested on: NCI-H522 lung

O=C1CC2(CCC(O)(c3cccs3)C(C(=O)c3cccs3)C2)C(=O)c2ccccc2N1 (configuration not stated)
TGI (HL-60(TB) leukemia): > 100 µM
TGI (OVCAR-5 ovarian): > 100 µM
TGI (DU-145 prostate): > 100 µM
TGI (NCI-H226 lung): > 100 µM
TGI (MOLT-4 leukemia): > 100 µM
TGI (MDA-MB-231 breast): > 100 µM
TGI (IGROV1 ovarian): > 100 µM

COc1ccc(C2c3cc4c(cc3OC(O)(CO)C2C(=O)O)OCO4)cc1 (configuration not stated) (tested in a mixture with another compound)
TGI (HL-60(TB) leukemia): 41.7 µM
TGI (OVCAR-5 ovarian): > 100 µM
TGI (OVCAR-4 ovarian): > 100 µM
TGI (NCI-H226 lung): 47.7 µM
TGI (MOLT-4 leukemia): 57.8 µM
TGI (SK-MEL-28 melanoma): 43.8 µM
TGI (IGROV1 ovarian): 43.5 µM

COC(OC)C1OC(CO)C(n2cc(F)c(=O)[nH]c2=O)C1O (configuration not stated)
TGI (HL-60(TB) leukemia): > 100 µM
TGI (OVCAR-5 ovarian): > 100 µM
TGI (DU-145 prostate): 64.4 µM
TGI (OVCAR-4 ovarian): > 100 µM
TGI (NCI-H226 lung): > 100 µM
TGI (MOLT-4 leukemia): > 100 µM
TGI (SK-MEL-28 melanoma): > 100 µM
TGI (MDA-MB-231 breast): > 100 µM
TGI (IGROV1 ovarian): > 100 µM
TGI (NCI-H522 lung): > 100 µM

CC(=O)c1ccc2c(c1)N(CCCN1CCN(CCO)CC1)c1ccccc1C2
TGI (HL-60(TB) leukemia): 29.2 µM
TGI (OVCAR-5 ovarian): 32.1 µM
TGI (DU-145 prostate): 28 µM
TGI (OVCAR-4 ovarian): 30.2 µM
TGI (NCI-H226 lung): 30.9 µM
TGI (MOLT-4 leukemia): 35.2 µM
TGI (SK-MEL-28 melanoma): 23.8 µM
TGI (MDA-MB-231 breast): 26.7 µM
TGI (IGROV1 ovarian): 31.3 µM
TGI (NCI-H522 lung): 31.2 µM

CC(=O)Oc1ccc(CO)cc1OC(C)=O
TGI (HL-60(TB) leukemia): 75.2 µM
TGI (OVCAR-5 ovarian): > 100 µM
TGI (OVCAR-4 ovarian): > 100 µM
TGI (NCI-H226 lung): > 100 µM
TGI (MOLT-4 leukemia): > 100 µM
TGI (SK-MEL-28 melanoma): > 100 µM
TGI (NCI-H522 lung): > 100 µM

COc1cc2c(cc1OCCCCCCCCN1C(=O)c3cccc4cccc(c34)C1=O)N=C[C@@H]1CCCN1C2=O
TGI (HL-60(TB) leukemia): 52.3 µM
TGI (OVCAR-5 ovarian): 66.2 µM
TGI (DU-145 prostate): > 100 µM
TGI (OVCAR-4 ovarian): 7.41 µM
TGI (NCI-H226 lung): 46.8 µM
TGI (MOLT-4 leukemia): 9.42 µM
TGI (SK-MEL-28 melanoma): 37.9 µM
TGI (MDA-MB-231 breast): 34 µM
TGI (IGROV1 ovarian): 64.7 µM
TGI (NCI-H522 lung): 39.9 µM

O=c1[nH]c(Nc2ccc(Cl)cc2)nc2nc[nH]c12
TGI (HL-60(TB) leukemia): > 100 µM
TGI (OVCAR-5 ovarian): > 100 µM
TGI (DU-145 prostate): > 100 µM
TGI (OVCAR-4 ovarian): > 100 µM
TGI (NCI-H226 lung): > 100 µM
TGI (SK-MEL-28 melanoma): > 100 µM
TGI (MDA-MB-231 breast): > 100 µM
TGI (IGROV1 ovarian): > 100 µM
TGI (NCI-H522 lung): > 100 µM

O=C(O)C(O)C(O)C(O)C(=O)CO (configuration not stated)
TGI (HL-60(TB) leukemia): > 100 µM
TGI (OVCAR-5 ovarian): > 100 µM
TGI (DU-145 prostate): > 100 µM
TGI (OVCAR-4 ovarian): > 100 µM
TGI (NCI-H226 lung): > 100 µM
TGI (MOLT-4 leukemia): > 100 µM
TGI (SK-MEL-28 melanoma): > 100 µM
TGI (MDA-MB-231 breast): > 100 µM
TGI (IGROV1 ovarian): > 100 µM
TGI (NCI-H522 lung): > 100 µM

COC(=O)C1=C(O)CCCC(CCC(C)=O)=C1
TGI (HL-60(TB) leukemia): 43.8 µM
TGI (OVCAR-5 ovarian): > 100 µM
TGI (DU-145 prostate): > 100 µM
TGI (OVCAR-4 ovarian): > 100 µM
TGI (NCI-H226 lung): > 100 µM
TGI (MOLT-4 leukemia): > 100 µM
TGI (SK-MEL-28 melanoma): > 100 µM
TGI (MDA-MB-231 breast): > 100 µM
TGI (IGROV1 ovarian): > 100 µM
TGI (NCI-H522 lung): 31.1 µM

Nc1cc(-c2ccc(Cl)cc2)nn1-c1nc2ccccc2nc1-c1ccccc1
TGI (HL-60(TB) leukemia): > 100 µM
TGI (OVCAR-5 ovarian): > 100 µM
TGI (DU-145 prostate): > 100 µM
TGI (OVCAR-4 ovarian): > 100 µM
TGI (NCI-H226 lung): > 100 µM
TGI (MOLT-4 leukemia): > 100 µM
TGI (SK-MEL-28 melanoma): > 100 µM
TGI (MDA-MB-231 breast): > 100 µM
TGI (IGROV1 ovarian): > 100 µM
TGI (NCI-H522 lung): > 100 µM

COC(=S)OC1CC(n2cnc3c(N)ncnc32)OC1CO[Si](C)(C)C(C)(C)C (configuration not stated)
TGI (HL-60(TB) leukemia): > 100 µM
TGI (OVCAR-5 ovarian): 65.4 µM
TGI (DU-145 prostate): 38.5 µM
TGI (OVCAR-4 ovarian): 44 µM
TGI (NCI-H226 lung): 59.2 µM
TGI (MOLT-4 leukemia): > 100 µM
TGI (SK-MEL-28 melanoma): 96.7 µM
TGI (MDA-MB-231 breast): 39.9 µM
TGI (IGROV1 ovarian): 43.8 µM

N#Cc1c(N)nc2c(c1-c1ccc(Br)cc1)CSc1ccccc1-2
TGI (HL-60(TB) leukemia): 98.5 µM
TGI (DU-145 prostate): > 100 µM
TGI (OVCAR-4 ovarian): > 100 µM
TGI (NCI-H226 lung): 85.6 µM
TGI (MOLT-4 leukemia): > 100 µM
TGI (SK-MEL-28 melanoma): > 100 µM
TGI (MDA-MB-231 breast): 51.6 µM
TGI (IGROV1 ovarian): > 100 µM

C1=CC(=[N+]2N=C(c3ccccc3)CC2c2ccccc2)C=CC1=C1SC(c2ccccc2)(c2ccccc2)c2ccccc21 (configuration not stated)
TGI (HL-60(TB) leukemia): > 100 µM
TGI (OVCAR-5 ovarian): > 100 µM
TGI (DU-145 prostate): > 100 µM
TGI (NCI-H226 lung): > 100 µM
TGI (MOLT-4 leukemia): > 100 µM
TGI (SK-MEL-28 melanoma): > 100 µM
TGI (MDA-MB-231 breast): > 100 µM
TGI (IGROV1 ovarian): > 100 µM

C/C(N=Nc1nc2ccccc2[nH]1)=C1/C=CC=CN1O
TGI (OVCAR-5 ovarian): > 100 µM
TGI (DU-145 prostate): > 100 µM
TGI (OVCAR-4 ovarian): > 100 µM
TGI (NCI-H226 lung): > 100 µM
TGI (MOLT-4 leukemia): > 100 µM
TGI (SK-MEL-28 melanoma): > 100 µM
TGI (MDA-MB-231 breast): > 100 µM
TGI (IGROV1 ovarian): > 100 µM
TGI (NCI-H522 lung): > 100 µM

CCC(C)C(NC(=O)C1CCCN1C(=O)C(CC(C)C)NC(=O)C(CC(C)C)NC(=O)C(N)CC(C)C)C(=O)NC(C(=O)NCC(=O)NC(CC(N)=O)C(=O)NC(CC(C)C)C(=O)NC(CC(C)C)C(=O)NC(CC(C)C)C(N)=O)C(C)C (configuration not stated) (H-LLLPIVGNLLL-NH2; configuration not given here)
TGI (HL-60(TB) leukemia): > 50 µM
TGI (OVCAR-5 ovarian): > 50 µM
TGI (DU-145 prostate): > 50 µM
TGI (OVCAR-4 ovarian): > 50 µM
TGI (NCI-H226 lung): > 50 µM
TGI (MOLT-4 leukemia): > 50 µM
TGI (SK-MEL-28 melanoma): > 50 µM
TGI (MDA-MB-231 breast): > 50 µM
TGI (IGROV1 ovarian): > 50 µM
TGI (NCI-H522 lung): > 50 µM

CSCCC(NC(=O)OCc1ccccc1)P(=O)(O)c1ccccc1 (configuration not stated)
TGI (HL-60(TB) leukemia): > 100 µM
TGI (OVCAR-5 ovarian): > 100 µM
TGI (DU-145 prostate): > 100 µM
TGI (OVCAR-4 ovarian): > 100 µM
TGI (NCI-H226 lung): > 100 µM
TGI (MOLT-4 leukemia): > 100 µM
TGI (SK-MEL-28 melanoma): > 100 µM
TGI (MDA-MB-231 breast): > 100 µM
TGI (IGROV1 ovarian): > 100 µM
TGI (NCI-H522 lung): > 100 µM

CCOC(=O)C(=O)NCCCN1CCOCC1
TGI (HL-60(TB) leukemia): > 100 µM
TGI (OVCAR-5 ovarian): > 100 µM
TGI (OVCAR-4 ovarian): > 100 µM
TGI (NCI-H226 lung): > 100 µM
TGI (MOLT-4 leukemia): > 100 µM
TGI (SK-MEL-28 melanoma): > 100 µM
TGI (IGROV1 ovarian): > 100 µM
TGI (NCI-H522 lung): > 100 µM
